Test system: NOD1 induced NF-κB and MAPK pathways
Test: Western blotting of IκBα and phospho-MAPKs in Tri-DAP stimulated 293/hNOD1 cells
Assay type: cell-based, human
Details: 50 µg/mL Tri-DAP 1 hour, immunoblotting
Method: Confluent cultures of 293/hNOD1 and -hNOD2 cells seeded in 24-well plates were serum-starved over-night, pre-incubated for 1 hour with compound and then stimulated for 1 hour with either 50 µg/mL Tri-DAP or 25 µg/mL MDP, respectively. Whole cell lysates were prepared in 1X cell lysis buffer (Cell Signaling Technology) supplemented with additional protease, aminopeptidase and phosphatase inhibitors (protease inhibitor cocktail set III, EMD Biosciences; phosphatase inhibitor sets II and III, Sigma-Aldrich). The levels of phosphorylated and total p38, JNK, ERK1/2 and total IκBα were determined by immunoblotting of ∼20 µg protein per sample using the following primary antibodies: phospho-p38 MAPK (12F8, #4631), p38 MAPK (#9212), phospho-JNK (#9251), JNK (#9252) and IκBα (#9242) all purchased from Cell Signaling Technology, and phospho-ERK1/2 (sc-7383) and ERK1/2 (sc-94) antibodies from Santa Cruz Biotechnology.

## Cc1ccc(S(=O)(=O)Nc2cccc(C(=O)Nc3ccc4nc(C)sc4c3)c2)cc1 [Compound 16]
  effect on Tri-DAP induced p-JNK, p-p38 and IκBα responses: reduced both phospho-JNK and the weaker phospho-p38 levels while levels of IκBα were increased

— paper PMC4013053, “Identification of Selective Small Molecule Inhibitors of the Nucleotide-Binding Oligomerization Domain 1 (NOD1) Signaling Pathway” (PLoS ONE, 2014)
